Assay results as given in patent US8658373B2, “Method of screening for an agent for treating arthritis and promoting growth of articular chondrocytes” (Kazuwa Nakao, priority 2004, dated 2014).
Entries after “also recorded” stand apart in the source; their conditions may differ. Bridges are numbered along the chain shown (N, C = ends). Where no end group is shown, it is not given here.

Experiments:
[1] = tested on: surgical OA mouse model (right knee joint); experiment: Therapeutic effect of CNP infusion on surgical OA mouse model; format: in vivo; conditions: 4, 8 and 11 days postoperatively
Experimental: An osmotic pump (2004 model, Durect) containing the solutions below was transplanted subcutaneously in the back of a 9-week-old male C57BL/6 J strain mouse (CLEA Japan, Japan). • Solvent: Distilled water containing 5% dextrose (Junsei Chemical Co., Ltd., Japan), 10% mannose (Nacalai Tesque Inc., Japan) and 5 mmol/L hydrochloric acid (Wako Pure Chemical Industries, Japan). • […] solution (60 ng/day) of CNP-22 (Calbiochem Novabiochem). • […] solution (600 ng/day) of CNP-22 (Calbiochem Novabiochem).
On the following day of transplantation, the mouse was anesthetized with ether and subjected to the surgical procedures of anterocrucial ligament excision, medial collateral ligament excision and medial meniscus total resection in the right knee joint to induce osteoarthritis. The breadth of both the right and left knee joints was measured on time with a slide caliper (Mitutoyo Corp.) for 11 days after administration, and the difference between the right and left knee joints was calculated. This difference represented the swelling of knee joints, and the AUC was compared between the solvent control and CNP groups by the Student's t-test (SAS Preclinical Package, SAS Institute Japan, Japan).

[2] = tested on: adjuvant arthritis rat model; experiment: Effect of CNPs on adjuvant arthritis rat model; format: in vivo; conditions: CNP-22 60 ng/day; for arthritis score of the limb ends vs solvent control: osmotic pump subcutaneous; for body weight vs solvent control: days 7 and 10 from antigen sensitization
[3] = tested on: collagenase OA mouse model (right knee joint); experiment: Therapeutic effect of CNP infusion on collagenase osteoarthritic mouse model; format: in vivo; conditions: for AUC of knee joint swelling (difference between right and left knee joint breadth) vs solvent control: 1.5% collagenase, 28 days; for swelling of the right knee joint vs solvent control: 6 days following 1.5% collagenase
Experimental: An osmotic pump (2004 model, Durect) containing the solutions below was transplanted subcutaneously in the back of a 9-week-old male C57BL/6 J strain mouse. • Solvent: Distilled water containing 5% dextrose (Junsei Chemical Co., Ltd., Japan), 10% mannose (Nacalai Tesque Inc., Japan) and 5 mmol/L hydrochloric acid (Wako Pure Chemical Industries, Japan). • 10 μg/mL solution (60 ng/day) of CNP-22 (Calbiochem Novabiochem). • 100 μg/mL solution (600 ng/day) of CNP-22 (Calbiochem Novabiochem.).
Six days after transplantation, 6 μL of 1.5% type II collagenase (Sigma) solution was injected into the right knee joint, the breadth of both the right and left knee joints was measured on time with a slide caliper (Mitutoyo Corp., Japan) for 28 days after injection, and the difference between the right and left knee joints was calculated. This difference represented the swelling of knee joints, and the AUC was compared between the solvent control and CNP groups by the Student's t-test (SAS ver. 6.12). […] Hematoxylin-eosin-stained and safranin O-stained samples were prepared according to the method as described in Example 5, and analyzed histopathologically.

[4] = tested on: collagenase OA mouse model (right knee joint); experiment: Combined effect of NSAID and CNP in collagenase OA model; format: in vivo; conditions: 7 days
Experimental: An osmotic […]) containing the solutions below was transplanted subcutaneously in the back of a 9-week-old male C57BL/6 J strain mouse. • Solvent: Distilled water containing 5% dextrose (Junsei Chemical Co., Ltd., Japan), 10% mannose (Nacalai Tesque Inc., Japan) and 5 mmol/L hydrochloric acid (Wako Pure Chemical Industries, Japan). • 1 μg/mL solution (6 ng/day) of CNP-22 (Calbiochem Novabiochem). In addition, to examine the effect of the NSAID indomethacin (Sigma) when used alone and in combination with the CNP, an indomethacin suspension in 0.2% carboxymethyl cellulose (Nacalai Tesque Inc., Japan) was administered orally in a forced manner at 1 mg/kg once a day for 4 successive days from the date of pump transplantation described above. On the date of pump transplantation and the following day, 6 μL of 0.15% type II collagenase (Sigma) and 6 μL of 1.5% type II collagenase solutions, respectively, were injected into the right knee joint, the breadth of both the right and left knee joints was measured daily with a slide caliper (Mitutoyo Corp., Japan) for 7 days after injection, and the difference between the right and left knee joints was calculated. This difference represented the swelling of knee joints, and the AUC was compared between the solvent control and CNP groups by the Student's t-test (SAS ver. 6.12).

[5] = tested on: collagen arthritis rat model; experiment: Effect of CNPs on collagen arthritis rat model; format: in vivo; conditions: CNP-22 6 μg/day, days 21, 24 and 28 from antigen sensitization
Experimental: An osmotic pump (2004 model, Durect) containing the solutions below was transplanted subcutaneously in the back of a 10-week-old female DA/Slc strain rat (Japan SLC, Inc., Japan). • Solvent: Distilled water containing 5% dextrose (Junsei Chemical Co., Ltd., Japan), 10% mannose (Nacalai Tesque Inc., Japan) and 5 mmol/L hydrochloric acid (Wako Pure Chemical Industries, Japan). • 1 mg/mL solution (6 μg/day) of CNP-22 (Calbiochem Novabiochem).
Immediately after transplantation, bovine type II collagen (Collagen Technology Training Co., Japan) was dissolved in 0.1 mol/L aqueous acetic acid so as to make 1.5 mg/mL and suspended in an equal volume of Freund Incomplete Adjuvant (DIFCO LABORATORIES), and 400 μL of the suspension was inoculated into the skin on the back of a rat. Changes in body weight were also measured on a daily basis. In addition, changes in body weight were also measured in a normal group receiving neither pump transplantation nor inoculation.

[6] = tested on: mouse bone marrow macrophages (BMM); conditions: stimulation of mouse BMM with LPS; cited from earlier work
[7] = tested on: blood thromboxane B2 (TXB2) level; conditions: LPS administration in mice; cited from earlier work
[8] = CNP-22 60 ng/day continuous subcutaneous
[9] = CNP-22 600 ng/day continuous subcutaneous

## Gly Leu Ser Lys Gly Cys Phe Gly Leu Lys Leu Asp Arg Ile Gly Ser Met Ser Gly Leu Gly Cys (GLSKGCFGLKLDRIGSMSGLGC; disulfide 6-22; listed as Homo sapiens) [CNP-22, CNP-22 (Calbiochem Novabiochem) used in the tests]
[1]; [8]
  AUC of knee joint swelling vs solvent control: significantly lower; also recorded: significantly inhibited
[1]; [9]
  AUC of knee joint swelling vs solvent control: significantly lower; also recorded: significantly inhibited
[2]
  arthritis score of the limb ends vs solvent control: lower
  body weight vs solvent control: significantly heavy
[2]; listed as CNP
  arthritis score of the limb ends vs solvent control: somewhat lower
  body weight vs solvent control: increased significantly
[3]; CNP group vs solvent control, collagenase-induced
  synovial cell growth, granulation and inflammatory cell infiltration in the synovial membrane (histopathology): remarkably reduced
[3]; CNP group, osmotic pump infusion
  degeneration of the articular cartilage: significantly reduced
[3]; CNP-22 60 ng/day continuous subcutaneous (osmotic pump)
  AUC of knee joint swelling (difference between right and left knee joint breadth) vs solvent control: significantly lower
[3]; [8]
  swelling of the right knee joint vs solvent control: significantly inhibited
[3]; CNP-22 600 ng/day continuous subcutaneous (osmotic pump)
  AUC of knee joint swelling (difference between right and left knee joint breadth) vs solvent control: significantly lower
[3]; [9]
  swelling of the right knee joint vs solvent control: significantly inhibited
[4]; CNP-22 6 ng/day continuous subcutaneous alone
  swelling of knee joints (AUC) vs solvent control: significantly inhibited
[5]
  body weight (body weight loss) vs solvent control: significantly heavy
[5]; listed as CNP
  body weight (body weight loss) vs solvent control: significantly smaller
[6]
  inhibitory effect on the enhancement of PGE2 production: up to 20%

## ANP: atrial sodium peptide, a natriuretic peptide acting via NPR-A (SLRRSSCFGGRMDRIGAQSGLGCNSFRY; ends and bridges not checked; cysteine pairing not given here; UniProt P01160 124-151, looked up) [reference compound]
[7]
  effect on LPS-increased blood TXB2 level: inhibitory effect
[6]
  inhibitory effect on the enhancement of PGE2 production: up to 70%

## COc1ccc2c(c1)c(CC(=O)O)c(C)n2C(=O)c1ccc(Cl)cc1 [indomethacin]
[4]; indomethacin 1 mg/kg oral once a day for 4 days, alone
  swelling of knee joints (AUC) vs solvent control: not inhibitory; also recorded: did not
